Read-outs that look alike come from different tables or passages of the source. Where a SMILES comes first, the peptide text is derived from it. [ ]: non-standard residue; d: D form. The star is where a group is joined. Sta = CC(C)C[C@H](N)[C@@H](O)CC(=O)O; Isovaleryl = CC(C)CC(=O)*; Nle = CCCC[C@H](N)C(=O)O
Experiments:
[1] = imidazole-HCl/EGTA buffer, pH 7.3; used for approximating [Ca2+]; read-out: Kd of EGTA for calcium; cited from earlier work
native calpain I = biological target: T1, native calpain I (Homo sapiens, UniProt P07384); test: Inhibitor profile: inhibition of Succ-Leu-Tyr-MNA hydrolysis by native calpain I; format: biochemical; details: for difference in IC50 values with respect to the known calpain inhibitors / inhibition of activity: native enzyme
T1 construct: Native and recombinant enzymatically active calpain I were compared; from tissue; host or cells: human erythrocytes (red blood cells)
T1 sequence (P07384 2-714): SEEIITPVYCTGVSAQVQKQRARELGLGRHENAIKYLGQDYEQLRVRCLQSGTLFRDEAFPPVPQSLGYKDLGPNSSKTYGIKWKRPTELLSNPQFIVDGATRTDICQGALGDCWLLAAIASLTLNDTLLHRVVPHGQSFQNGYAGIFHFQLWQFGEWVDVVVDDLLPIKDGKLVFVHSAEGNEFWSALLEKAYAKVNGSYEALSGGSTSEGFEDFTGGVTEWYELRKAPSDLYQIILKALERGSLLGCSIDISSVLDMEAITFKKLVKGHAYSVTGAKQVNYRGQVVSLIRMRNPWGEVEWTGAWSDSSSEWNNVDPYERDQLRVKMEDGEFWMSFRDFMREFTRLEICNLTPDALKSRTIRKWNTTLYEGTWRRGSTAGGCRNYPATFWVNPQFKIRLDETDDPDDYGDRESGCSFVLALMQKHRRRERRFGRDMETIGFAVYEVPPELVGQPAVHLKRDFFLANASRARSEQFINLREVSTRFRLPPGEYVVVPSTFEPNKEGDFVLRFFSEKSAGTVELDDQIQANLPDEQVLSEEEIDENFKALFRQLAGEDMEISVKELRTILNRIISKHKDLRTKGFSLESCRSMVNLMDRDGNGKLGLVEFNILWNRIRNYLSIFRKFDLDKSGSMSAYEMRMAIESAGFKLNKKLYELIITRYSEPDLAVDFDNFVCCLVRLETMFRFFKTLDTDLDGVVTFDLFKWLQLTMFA
T1 sequence (P04632 1-268 partner): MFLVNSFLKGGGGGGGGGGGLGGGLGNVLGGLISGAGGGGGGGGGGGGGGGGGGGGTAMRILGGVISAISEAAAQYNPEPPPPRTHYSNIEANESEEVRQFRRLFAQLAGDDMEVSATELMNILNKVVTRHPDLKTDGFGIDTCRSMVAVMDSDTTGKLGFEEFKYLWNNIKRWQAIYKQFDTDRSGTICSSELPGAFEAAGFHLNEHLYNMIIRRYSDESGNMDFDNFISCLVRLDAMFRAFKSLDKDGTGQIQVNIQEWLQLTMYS
Experimental: (§1) To evaluate inhibitor sensitivities, stocks (40 times concentrated) of each inhibitor to be tested were prepared in 100% anhydrous DMSO and 5 μl of each inhibitor preparation were aliquoted into each of three wells of a 96 well plate. Dilutions of each enzyme preparation were made into assay buffer (i.e., 50 mM Tris, 50 mM NaCl, 1 mM EDTA, 1 mM EGTA, and 5 mM β-mercaptoethanol, pH 7.5 including 0.2 mM Succ-Leu-Tyr-MNA) and 175 μl of each dilution aliquoted into the same wells containing the independent inhibitor stocks as well as to positive control wells containing 5 μl DMSO, but no inhibitor. To start the reaction, 20 μl of 50 mM CaCl2 in assay buffer was added to all wells of the plate, excepting three, which were used as background signal baseline controls. Substrate hydrolysis was monitored every 5 minutes for a total of 30 minutes. […] The rate of hydrolysis was determined as the change in fluorescence units per the 10 minute time period between 5 and 15 minutes. At each inhibitor concentration tested, the percent inhibition was determined as the percent decrease in the rate of substrate hydrolysis in the presence of inhibitor versus the rate in its absence. […] Prototypic inhibitors of serine (PMSF) and aspartic proteases (pepstatin A) were also included in this determination.

[2] = biological target: T2, recombinant human calpain I (Homo sapiens, UniProt P07384); test: Inhibitor profile: inhibition of Succ-Leu-Tyr-MNA hydrolysis by recombinant calpain I; format: biochemical; details: for difference in IC50 values with respect to the known calpain inhibitors / inhibition of activity: recombinant enzyme
T2 construct: the 2153 bp fragment containing the entire human 80 kDa calpain I cDNA; made in house; host or cells: Spodoptera frugiperda Sf21 cells, recombinant baculovirus (AcNPV-hCANPI-2-5, or coinfection with AcNPV-hCANP30-5 and AcNPV-hCANPI80-5)
T2 sequence (P07384 2-714): T1 sequence (P07384 2-714)
T2 sequence (P04632 1-268 partner): T1 sequence (P04632 1-268 partner)
Experimental: as §1

native human calpain I [3] = test: Calcium-dependent protease activity (Succ-Leu-Tyr-AMC), native calpain I; format: biochemical; details: 12.5 μM calpain inhibitor I; native human calpain I; FIG. 5a
Experimental: (§2) Sf21 cells were again seeded in 24 well plates at 1.5×10^5 cells/cm^2 and infected with either wild-type virus, coinfected with both AcNPV-hCANP30-5 and AcNPV-hCANPI80-5 (MOI of 5 for each virus), or infected with AcNPV-hCANPI-2-5 (MOI=5.7). The intracellular proteins were harvested at 40 hours after infection with 100 μl/well of the following lysis buffer: 50 mM Tris-HCl, pH 7.5, 50 mM NaCl, 1 mM EDTA, 1 mM EGTA, 5 mM β-mercaptoethanol, 0.1% Triton-100, followed by a 10 minutes centrifugation at 14,000×g at 4° C. to pellet the nuclei and some membranes. The in vitro enzyme activity of 20 μl of each extract (12.5-20 μg of total protein) was measured using the synthetic peptide substrate succinyl-leucine-tyrosine-aminomethyl coumarin (Succ-Leu-Tyr-AMC) at a 1 mM concentration with and without the addition of 5 mM CaCl2 following the procedure of Sasaki et al., J. Biol. Chem., 259:12489-12494 (1984), incorporated herein by reference. The activity obtained was compared with the enzyme activity of 2 μg of partially-purified native human calpain I produced according to the method of Siman et al., supra.
(§3) The activity in the presence of calcium was also measured with the addition of 12.5 μM calpain inhibitor I following the procedure disclosed in Sasaki et al., supra. The results are depicted in FIGS. 5a-d. In FIGS. 5a-d, open circles represent activity without calcium present. […]

[4] = biological target: T2, recombinant human calpain I; test: Calcium-dependent protease activity (Succ-Leu-Tyr-AMC), recombinant calpain in Sf21 cell extracts; format: biochemical; details: 12.5 μM calpain inhibitor I; recombinant, coinfected or AcNPV-hCANPI-2-5; FIGS. 5c, 5d
Experimental: as §2, §3

[5] = system: recombinant 80 kDa subunit of calpain I; test: Enzymatic activity of independently expressed 80 kDa subunit (Succ-Leu-Tyr-AMC); format: biochemical, human; details: 12.5 μM calpain inhibitor I; 33 μg unfractionated extract; FIG. 8
Experimental: as §2, with “The activity obtained was compared with the enzyme activity of 2 μg of partially-purified native human calpain I produced according to the method of Siman et al., supra.” left out
To determine the relative activity of the recombinantly produced 80 kDasubunit, the enzymatic activity of the subunit was examined in unfractionated extracts from Sf21 cells infected with AcNPV-hCANPI80-5. […] The same amount of enzyme activity for both the recombinant 80 kDa subunit and the recombinant calpain was then run on SDS-PAGE and the amount of each was qualitatively determined by immunoblot analysis as described in Example 4 above. […]

neurons = details: rats, clamping both carotid arteries and lowering arterial blood pressure; cited from earlier work
[6] = system: EAA-induced protein breakdown; details: in vivo; cited from earlier work
cells = details: cited from earlier work
[7] = system: vulnerable hippocampal neurons; details: in vivo; cited from earlier work
calpain = details: in vivo; cited from earlier work
rat Na,K-ATPase = details: enzyme from insect cells; cited from earlier work
native human calpain I [8] = test: Calcium activation of native calpain (Succ-Leu-Tyr-MNA hydrolysis); format: biochemical; details: pH 7.3, 1 mM Succ-Leu-Tyr-MNA, approximation based on Kd of EGTA, read-out: concentration of calcium required to give 1/2 Vmax
Experimental: (§4) To determine the calcium concentration required for enzyme activity, tests were performed essentially as described by Kitahara et al., J. Biochem., 95:1759-1766 (1984). First, enzyme preparations were dialyzed overnight against 110 mM imidazole-HCl/1 mM EGTA buffer at pH 7.3 containing 5 mM β-mercaptoethanol. Ten-fold concentrated Ca^2+ /EGTA buffers were prepared by adding varying amounts of CaCl2 to the imidazole/EGTA buffer. Twenty μl of each buffer was put into three wells of a 96 well plate. Dilutions of dialyzed enzyme were made into the imidazole/EGTA buffer containing 1 mM Succ-Leu-Tyr-MNA and 180 μl of each preparation were added to the wells containing the various Ca/EGTA buffers. Substrate hydrolysis was measured every 5 minutes for 30 minutes. The 1/2 Vmax was determined as the rate of substrate hydrolysis which was 50% of the maximal rate achieved in the presence of the varying amounts of calcium. […] The [Ca^2+ ] activation profiles for both the native and recombinant enzymes are virtually identical. In FIG. 9, open squares with interior open circles represent recombinant human calpain I (rhCANPI). Shaded squares with interior open circles represent native human calpain I (nhCANPI).

[9] = biological target: T2, recombinant human calpain I; test: Calcium activation of recombinant calpain (Succ-Leu-Tyr-MNA hydrolysis); format: biochemical; details: pH 7.3, 1 mM Succ-Leu-Tyr-MNA, approximation based on Kd of EGTA, read-out: concentration of calcium required to give 1/2 Vmax
Experimental: as §4

[10] = Native calpain, 0.2 mM Succ-Leu-Tyr-MNA, rate between 5 and 15 minutes, read-out: IC50
[11] = Recombinant calpain, 0.2 mM Succ-Leu-Tyr-MNA, rate between 5 and 15 minutes, read-out: IC50

O=C(O)CN(CCOCCOCCN(CC(=O)O)CC(=O)O)CC(=O)O [EGTA]
Kd [1]: 5.5 µM

O=S(=O)(F)Cc1ccccc1 [PMSF, phenylmethylsulfonyl fluoride]
IC50 (native calpain I): > 1000 µM | difference in IC50 values with respect to the known calpain inhibitors (native calpain I): 5-6 fold order of magnitude | inhibition of activity (native calpain I): insignificant inhibition | IC50 [2]: > 1000 µM | difference in IC50 values with respect to the known calpain inhibitors [2]: 5-6 fold order of magnitude | inhibition of activity [2]: insignificant inhibition

CC(C)CC(=O)N[C@H](C(=O)N[C@H](C(=O)N[C@@H](CC(C)C)[C@@H](O)CC(=O)N[C@@H](C)C(=O)N[C@@H](CC(C)C)[C@@H](O)CC(=O)O)C(C)C)C(C)C [Pepstatin A] (Isovaleryl-VV[Sta]A[Sta]-OH)
IC50 (native calpain I; [10]): > 10 µM | difference in IC50 values with respect to the known calpain inhibitors (native calpain I): 5-6 fold order of magnitude | inhibition of activity (native calpain I): insignificant inhibition | IC50 [2, 11]: > 10 µM | difference in IC50 values with respect to the known calpain inhibitors [2]: 5-6 fold order of magnitude | inhibition of activity [2]: insignificant inhibition

CC(C)C[C@H](NC(=O)OCc1ccccc1)C(=O)N[C@@H](CC(C)C)C(=O)N[C@@H](Cc1ccccc1)C(=O)C[S+](C)C [Z--Leu--Leu--Phe--CH2 S(+)Me2 Br(-), Z-Leu-Leu-Phe-CH2 S(+)Me2 Br(-)]
IC50 (native calpain I; [10]): 0.014 µM | IC50 [2, 11]: 0.008 µM

CCCC[C@@H](C=O)NC(=O)[C@H](CC(C)C)NC(=O)OCc1ccccc1 [Z--Leu--Nle--H, Z-Leu-Nle-H]
IC50 (native calpain I; [10]): 0.014 µM | IC50 [2, 11]: 0.01 µM

CCNC(=O)C(=O)[C@H](Cc1ccccc1)NC(=O)[C@H](CC(C)C)NC(=O)OCc1ccccc1 [Z--Leu--Phe--CONHEt, Z-Leu-Phe-CONHEt]
IC50 (native calpain I): 0.056 µM | IC50 [2]: 0.034 µM

CCCC[C@@H](C=O)NC(=O)[C@H](CC(C)C)NC(=O)[C@H](CC(C)C)NC(C)=O [calpain inhibitor I] (Ac-Leu-Leu-[Nle]-aldehyde)
inhibition of calcium-dependent substrate hydrolysis (native human calpain I [3]): inhibited | inhibition of calcium-dependent substrate hydrolysis [4]: also inhibited | inhibition of activity [5]: completely inhibited | protection of neurons against ischemic and hypoxic damage (neurons): protected neurons against ischemic and hypoxic damage

CC(=O)N[C@@H](CC(C)C)C(=O)N[C@@H](CC(C)C)C(=O)N[C@H](C=O)CCCNC(=N)N [leupeptin]
lowering EAA-induced protein breakdown [6]: unsuccessful | uptake by cells (cells): failed to enter the cells | protection of neurons against ischemic and hypoxic damage (neurons): protected neurons against ischemic and hypoxic damage | protection against degeneration of hippocampal neurons after ischemia [7]: protected against the degeneration of vulnerable hippocampal neurons after ischemia | block of trauma-evoked calpain response (calpain): block a trauma-evoked calpain response in vivo

Na,K-ATPase: functional rat Na,K-ATPase expressed using the baculovirus expression system
activity relative to enzyme from dog kidney outer medulla (rat Na,K-ATPase): 20-25%

calcium
EC50 (native human calpain I [8]): 15 µM | EC50 [9]: 14 µM

calpastatin
uptake by cells (cells): not readily taken up by cells
